Measurements taken from patent publication US7585834B2, “Transporters comprising spaced arginine moieties” (The Board of Trustees of the Leland Stanford Junior …, priority 2001, dated 2009).
Ahx = NCCCCCC(=O)O; Fl = fluorescein

The compounds below were run on human T cell line, Jurkat (assay: cellular uptake assay of fluorescently labeled peptides (flow cytometry, mean fluorescent signal)). Settings: FIG. 1; single amino acid spacing without side chains (glycine, abu, aca); Jurkat cells.
Assay type: cell-based
Protocol: The fluorescently labeled peptides were dissolved in PBS, pH 7.2, and their concentrations were determined by absorption of fluorescein at 490 nm (ε=67,000). The human T cell line, Jurkat, grown in 10% fetal calf serum in DMEM, was used for all the cellular uptake experiments. Varying amounts of the peptides were added to 3×10^5 cells in a total of 200λ, in wells of microtiter plates, and incubated for varying periods of time, ranging from three to five minutes. The cells were spun, washed three times with cold PBS, incubated with 0.05% trypsin/0.53 mM EDTA (Gibco, Grand Island, N.Y.) at 37° C. for five minutes, washed with PBS, and resuspended in PBS containing 0.1% propidium iodide. The cells were analyzed either using confocal microscopy or fluorescent flow cytometry (FACScan, Becton Dickinson, Milpitas, Calif.). Cells staining with propidium iodide were excluded from the analysis. Data presented is the mean fluorescent signal for the 5000 cells collected. To prevent cellular uptake of the peptides, the cells were treated with sodium azide (1.0%) for 25 minutes prior to exposure to the peptides.

Row | Compound | cellular uptake of spaced arginine transport moieties tethered to fluorescein, relative to R7 homopolymer
1 | Fl-aca-RGRRGRRGRR-CONH2 [Seq. I.D. No. 4] | ε-aminocaproic acid>γ-aminobutyric acid>glycine
2 | Fl-aca-RabuRRabuRRabuRR-CONH2 [Seq. I.D. No. 5] | ε-aminocaproic acid>γ-aminobutyric acid>glycine
3 | Fl-aca-RacaRRacaRRacaRR-CONH2 [Seq. I.D. No. 6] | ε-aminocaproic acid>γ-aminobutyric acid>glycine

Same assay, conditions: FIG. 2; spacing by naturally occurring amino acids; fluorescein conjugates; Jurkat cells

Row | Compound | cellular uptake relative to the homopolymer R7 having no spacing
4 | N[C@@H](CC(=O)O)C(=O)O [Seq. I.D. No. 8] | Reduced, or comparable uptake
5 | N[C@@H](CCC(=O)O)C(=O)O [Seq. I.D. No. 9] | Reduced, or comparable uptake
6 | N[C@@H](Cc1c[nH]cn1)C(=O)O [Seq. I.D. No. 11] | increase in cellular uptake was found
7 | CC[C@H](C)[C@H](N)C(=O)O [Seq. I.D. No. 12] | increase in cellular uptake was found
8 | NCCCC[C@H](N)C(=O)O [Seq. I.D. No. 13] | increase in cellular uptake was found
9 | NC(=O)CC[C@H](N)C(=O)O [Seq. I.D. No. 18] | increase in cellular uptake was found
10 | C[C@@H](O)[C@H](N)C(=O)O [Seq. I.D. No. 20] | increase in cellular uptake was found
11 | N[C@@H](Cc1ccc(O)cc1)C(=O)O [Seq. I.D. No. 22] | Reduced, or comparable uptake
12 | Fl-aca-RARRARRARR-CONH2 [Seq. I.D. No. 7] | increase in cellular uptake was found
13 | Fl-aca-RFRRFRRFRR-CONH2 ({Fl-Ahx}-RFRRFRRFRR-NH2) [Seq. I.D. No. 10] | increase in cellular uptake was found
14 | Fl-aca-RGRRGRRGRR-CONH2 [Seq. I.D. No. 4] | increase in cellular uptake was found
15 | Fl-aca-RMRRMRRMRR-CONH2 [Seq. I.D. No. 15] | increase in cellular uptake was found
16 | Fl-aca-RNRRNRRNRR-CONH2 [Seq. I.D. No. 16] | increase in cellular uptake was found
17 | Fl-aca-RPRRPRRPRR-CONH2 [Seq. I.D. No. 17] | increase in cellular uptake was found
18 | Fl-aca-RSRRSRRSRR-CONH2 [Seq. I.D. No. 19] | increase in cellular uptake was found
19 | Fl-aca-RVRRVRRVRR-CONH2 [Seq. I.D. No. 21] | increase in cellular uptake was found

Same assay, conditions: FIG. 4; 6.25 μM; Jurkat cells

Row | Compound | cellular uptake at the lower concentration
20 | Fl-aca-R7CONH2 [Seq. I.D. No. 2, reference compound] | begins to drop off

Same assay, conditions: FIG. 6; compared with (RX)6R, X = aca, gly-gly or gly; Jurkat cells

Row | Compound | uptake (mean fluorescence) of (RX)6R transport oligomers versus homopolymers of D-arginine
21 | Fl-aca-r13-CONH2 [Seq. I.D. No. 28, reference compound] | significantly less effective in entering the cells
22 | Fl-aca-r19-CONH2 [Seq. I.D. No. 29, reference compound] | significantly less effective in entering the cells
